According to publication PMC12655351, “Synthesis and Anticancer Activity Evaluation of New 5-((5-Nitrofuran-2-yl)allylidene)-2-thioxo-4-thiazolidinones” (Pharmaceuticals, 2025):

Experiments:
[1] = system: SK-MEL-28; conditions: for TGI: SK-MEL-28, 48 h
[2] = system: RPMI-8226; conditions: RPMI-8226, 48 h
[3] = system: SNB-75; experiment: NCI-60 SRB screen; conditions: SNB-75, 48 h; for GI50 / CC50: Homo sapiens; for CC50: read-out: LC50, SNB-75, 48 h
[4] = system: M14; experiment: NCI-60 SRB screen; conditions: M14, 48 h; for GI50 / CC50: Homo sapiens; for CC50: read-out: LC50, M14, 48 h
[5] = system: HCT-15; experiment: NCI-60 SRB screen; conditions: HCT-15, 48 h; for GI50 / CC50: Homo sapiens; for CC50: read-out: LC50, HCT-15, 48 h
[6] = system: Prostate Cancer; conditions: Prostate Cancer subpanel
[7] = system: SW-620; experiment: NCI-60 SRB screen; conditions: SW-620, 48 h; for GI50: Homo sapiens
[8] = system: HL-60(TB); experiment: NCI-60 SRB screen; conditions: for TGI / GI50: HL-60(TB), 48 h; for GI50 / CC50: Homo sapiens, HL-60, 48 h; for CC50: read-out: LC50, HL-60(TB), 48 h
[9] = system: DU-145; conditions: for TGI: DU-145, 48 h
[10] = system: SN12C; experiment: cells; conditions: Homo sapiens, 48 h; for CC50: read-out: LC50, SN12C, 48 h
[11] = system: SN12C; conditions: SN12C, 48 h
[12] = system: Prostate Cancer; experiment: cells; conditions: Homo sapiens, read-out: MG_MID GI50
[13] = system: Renal Cancer; conditions: Renal Cancer subpanel
[14] = system: LOX IMVI; conditions: LOX IMVI, 48 h
[15] = system: OVCAR-4; conditions: OVCAR-4, 48 h
[16] = system: UACC-257; experiment: cells; conditions: Homo sapiens, UACC-257, 48 h; for CC50: read-out: LC50, UACC-257, 48 h
[17] = system: BT-549; conditions: for TGI: BT-549, 48 h
[18] = system: SF-539; conditions: for TGI: SF-539, 48 h
[19] = system: MOLT-4; conditions: MOLT-4, 48 h
[20] = system: T-47D; conditions: 48 h
[21] = system: Ovarian cancer; conditions: Ovarian cancer subpanel
[22] = system: HS 578T; conditions: 48 h
[23] = system: A549/ATCC; experiment: NCI-60 SRB screen; conditions: for TGI: 48 h; for GI50: Homo sapiens, A549, 48 h
[24] = system: OVCAR-8; experiment: cells; conditions: Homo sapiens, OVCAR-8, 48 h; for CC50: read-out: LC50, OVCAR-8, 48 h
[25] = system: UACC-62; experiment: NCI-60 SRB screen; conditions: UACC-62, 48 h; for GI50 / CC50: Homo sapiens; for CC50: read-out: LC50, UACC-62, 48 h
[26] = system: COLO 205; conditions: COLO 205, 48 h
[27] = system: SK-MEL-5; conditions: for TGI: SK-MEL-5, 48 h
[28] = system: SR; experiment: cells; conditions: Homo sapiens, 48 h; for CC50: read-out: LC50
[29] = system: MOLT-4; experiment: cells; conditions: Homo sapiens, MOLT-4, 48 h; for CC50: read-out: LC50, MOLT-4, 48 h
[30] = system: EKVX; experiment: NCI-60 SRB screen; conditions: 48 h; for GI50 / CC50: Homo sapiens; for CC50: read-out: LC50, EKVX, 48 h
[31] = system: HOP-62; experiment: NCI-60 SRB screen; conditions: HOP-62, 48 h; for GI50: Homo sapiens
[32] = system: OVCAR-4; experiment: cells; conditions: Homo sapiens, OVCAR-4, 48 h; for CC50: read-out: LC50, OVCAR-4, 48 h
[33] = system: HCT-116; experiment: cells; conditions: Homo sapiens, HCT-116, 48 h
[34] = system: UO-31; conditions: UO-31, 48 h
[35] = system: Colon cancer; experiment: NCI-60 SRB screen, subpanel; conditions: for MG_MID TGI: Colon cancer subpanel; for GI50 / CC50: Homo sapiens; for GI50: read-out: MG_MID GI50; for CC50: read-out: MG_MID LC50
[36] = system: MDA-MB-435; conditions: MDA-MB-435, 48 h
[37] = system: Breast cancer; conditions: Breast cancer subpanel
[38] = system: SK-MEL-28; experiment: cells; conditions: Homo sapiens, SK-MEL-28, 48 h; for CC50: read-out: LC50, SK-MEL-28, 48 h
[39] = system: HCC-2998; conditions: for TGI: HCC-2998, 48 h

## CC(C)C(C(=O)O)N1C(=O)/C(=C/C=C/c2ccc([N+](=O)[O-])o2)SC1=S (stereo not shown) [5b, 3-Methyl-2-((Z)-5-((E)-3-(5-nitrofuran-2-yl)allylidene)-4-oxo-2-thioxothiazolidin-3-yl)butanoic acid]
[1]; SK-MEL-28, 10 μM, 48 h
  growth GP: -95.39%
[1]
  TGI: 2.83 µM
[2]
  TGI: 1.49 µM
[3]
  GI50: 0.68 µM
  CC50: 4.89 µM
  TGI: 1.98 µM
[4]
  GI50: 1.6 µM
  CC50: 6.44 µM
  TGI: 3.21 µM
[5]
  TGI: 2.18 µM
  GI50: 0.73 µM
  CC50: 5.32 µM
[6]
  MG_MID TGI: 4.67 µM
[7]
  GI50: 0.59 µM
  TGI: 2.55 µM
[8]
  TGI: 3.87 µM
  GI50: 1.2 µM
  CC50: > 100 µM
[9]; DU-145, 10 μM, 48 h
  growth GP: -98.94%
[9]
  TGI: 2.82 µM
[10]
  GI50: 0.79 µM
  CC50: 4.96 µM
[11]
  TGI: 2.15 µM
[12]
  GI50: 1.62 µM
[13]
  MG_MID TGI: 3.27 µM
[14]
  TGI: 2.49 µM
[15]
  TGI: 6.72 µM
[16]
  GI50: 1.57 µM
  CC50: 6.8 µM
[17]; BT-549, 10 μM, 48 h
  growth GP: -98.16%
[17]
  TGI: 2.14 µM
[18]; SF-539, 10 μM, 48 h
  growth GP: -98.47%
[18]
  TGI: 2.91 µM
[19]
  TGI: 10.7 µM
[20]
  TGI: 3.24 µM
[21]
  MG_MID TGI: 5.19 µM
[22]
  TGI: 7.56 µM
[23]
  TGI: 3.83 µM
  GI50: 1.86 µM
[24]
  GI50: 1.49 µM
  CC50: 25.1 µM
[25]
  GI50: 0.78 µM
  CC50: 4.9 µM
  TGI: 2.16 µM
[26]
  TGI: 2.79 µM
[27]; SK-MEL-5, 10 μM, 48 h
  growth GP: -99.69%
[27]
  TGI: 2.21 µM
[28]
  GI50: 0.32 µM
  CC50: > 100 µM
[29]
  GI50: 2.34 µM
  CC50: > 100 µM
[30]
  TGI: 4.80 µM
  GI50: 2.01 µM
  CC50: 13.9 µM
[31]
  TGI: 3.08 µM
  GI50: 1.35 µM
[32]
  GI50: 2.43 µM
  CC50: 26.3 µM
[33]
  GI50: 0.32 µM
[34]
  TGI: 3.11 µM
[35]
  MG_MID TGI: 2.48 µM
  GI50: 1.03 µM
  CC50: 7.06 µM
[36]
  TGI: 2.17 µM
[37]
  MG_MID TGI: 3.46 µM
[38]
  GI50: 1.46 µM
  CC50: 5.48 µM
[39]; HCC-2998, 10 μM, 48 h
  growth GP: -95.90%
[39]
  TGI: 3.22 µM

## O=C(O)C(c1ccccc1)N1C(=O)/C(=C/C=C/c2ccc([N+](=O)[O-])o2)SC1=S (stereo not shown) [9b, 2-((Z)-5-((E)-3-(5-Nitrofuran-2-yl)allylidene)-4-oxo-2-thioxothiazolidin-3-yl)-2-phenylacetic acid]
[1]
  TGI: 23.4 µM
[2]
  TGI: 12.7 µM
[3]
  GI50: 2.11 µM
  CC50: 27.9 µM
  TGI: 7.39 µM
[4]
  GI50: 12.6 µM
  CC50: 58 µM
  TGI: 27.0 µM
[5]
  TGI: 22.9 µM
  GI50: 7.73 µM
  CC50: 59 µM
[6]
  MG_MID TGI: 26.8 µM
[7]
  GI50: 2.94 µM
  TGI: 9.66 µM
[8]
  TGI: 42.2 µM
  GI50: 14.8 µM
  CC50: > 100 µM
[9]
  TGI: 23.7 µM
[10]
  GI50: 5.39 µM
  CC50: 45 µM
[11]
  TGI: 18.3 µM
[12]
  GI50: 12.5 µM
[13]
  MG_MID TGI: 22.1 µM
[14]
  TGI: 25.9 µM
[15]
  TGI: 28.0 µM
[16]
  GI50: 13.2 µM
  CC50: 56.1 µM
[17]
  TGI: 7.81 µM
[18]
  TGI: 24.7 µM
[19]
  TGI: 39.9 µM
[20]
  TGI: 39.4 µM
[21]
  MG_MID TGI: 27.9 µM
[22]
  TGI: 35.0 µM
[23]
  TGI: 47.0 µM
  GI50: 16.8 µM
[24]
  GI50: 11.1 µM
  CC50: 58.5 µM
[25]
  GI50: 2.69 µM
  CC50: 35.3 µM
  TGI: 11.1 µM
[26]
  TGI: 22.2 µM
[27]
  TGI: 13.7 µM
[28]
  GI50: 3.15 µM
  CC50: > 100 µM
[29]
  GI50: 12.1 µM
  CC50: > 100 µM
[30]
  TGI: 28.1 µM
  GI50: 14.3 µM
  CC50: 55.1 µM
[31]
  TGI: 44.5 µM
  GI50: 13.1 µM
[32]
  GI50: 13.9 µM
  CC50: 56.1 µM
[33]
  GI50: 2.68 µM
[33]; read-out: LC50, HCT-116, 48 h
  CC50: > 100 µM
[34]
  TGI: 23.4 µM
[35]
  MG_MID TGI: 19.4 µM
  GI50: 6.75 µM
  CC50: 66.2 µM
[36]
  TGI: 13.0 µM
[37]
  MG_MID TGI: 22.2 µM
[38]
  GI50: 10.7 µM
  CC50: 51.1 µM
[39]
  TGI: 29.9 µM
